Bounds are passed on as bounds.

The values below come from US10815238B2, “Antimicrobial compounds and methods of making and using the same” (BIOVERSYS AG, priority 2013, dated 2020).

For the experiment, the system named is Eschericia coli (E. coli) strain ATCC25922. Kind of experiment: Standard microdilution assay, MIC against E. coli ATCC25922. The conditions noted are these: Escherichia coli; E. coli strain ATCC25922, standard microdilution assay; cutoff 16 micrograms/mL; read-out: MIC E. Coli. It counts as cell-based. Here is the method: The in vitro activity of the compounds of the present invention can be determined. Antimicrobial testing is typically performed to determine the minimum inhibitory concentration (MIC). Minimum inhibitory concentrations (MICs) are determined by the microdilution method in a final volume of 100 μl according to protocols outlined by The Clinical and Laboratory Standards Institute (CLSI). Performance standards for reference strains are assessed within the same experimental design to maintain quality control. See, for example, Clinical Laboratory Standards Institute: Methods for dilution antimicrobial susceptibility tests for bacteria that grow aerobically M7-A8. Approved Standard-Eighth Edition. Wayne, Pa.: CLSI; December 2008; and Clinical Laboratory Standards Institute: Performance Standards for Antimicrobial Susceptibility Testing M100-S20; Approved Standard-Twentieth Edition. Wayne, Pa.: CLSI; June 2010.
The compounds of the present invention were tested for antimicrobial activity. The Compounds 1-582 were run against Eschericia coli (E. coli) strain ATCC25922 and Compounds 320-582 were run against Staphylococcus aureus (S. aureus) 11540 strain using a standard microdilution assay to determine minimum inhibitory concentrations (MICs). […] It will be recognized by one skilled in the art that the compounds can be assessed against other bacterial organisms and that the presentation of data for activity against Eschericia coli and Staphylococcus aureus are illustrative and in no way is intended to limit the scope of the present invention. The compounds of the present invention can be assayed against a range of other microorganisms depending upon the performance activity desired to be gathered. Furthermore, the “+” and “−” representation and the selection of a cutoff value of 16 micrograms/mL is also illustrative and in no way is intended to limit the scope of the present invention.
For the molecule `C[C@H](N)CCCc1cc(SC(F)(F)F)cc(-c2cc3cn(-c4ccc(C(NCCCNC(=N)N)c5nnn[nH]5)cc4)c(=O)nc3[nH]2)c1` (stereo partly drawn) [Compound 106], the MIC is below 16 µg/mL.
Consider `C[C@H](N)CCCc1cc(Cl)c(F)c(-c2cc3cn(-c4ccc([C@H](C)NCC[C@@H](CO)NC(=N)N)cc4)c(=O)nc3[nH]2)c1` [Compound 264], for which the MIC was below 16 µg/mL.
On to `N=C(N)NCCCNCc1ccc(-n2cc3cc(-c4ccc(/C=N/OCCNC(=N)N)cc4)[nH]c3nc2=O)cc1` [Compound 53], for which the MIC is below 16 µg/mL.
As for `C[C@H](N)CCCc1cc(SC(F)(F)F)cc(-c2cc3cn(-c4ccc([C@H](CCN)NCCCNC(=N)N)cc4)c(=O)nc3[nH]2)c1` [Compound 23], the figure is below 16 µg/mL; as for `C[C@H](N)CCCc1cc(Cl)c(F)c(-c2cc3cn(-c4ccc([C@H](C)NCC[C@H](CO)NC(=N)N)cc4)c(=O)nc3[nH]2)c1` [Compound 262], below 16 µg/mL.
Next, `N=C(N)NCCCNCc1ccc(-n2cc3cc(-c4ccc(/C=C/C5CN(C(=N)N)C5)cc4)[nH]c3nc2=O)cc1` [Compound 50]: below 16 µg/mL.
As for `C[C@H](N)CCCc1cc(Cl)c(F)c(-c2cc3cn(-c4ccc([C@@H](N)C(=O)NCCNC(=N)N)cc4)c(=O)nc3[nH]2)c1` [Compound 256], the figure is below 16 µg/mL.
In the case of `C=CC[C@@H](CCN[C@@H](C)c1ccc(-n2cc3cc(-c4cc(CCC[C@H](C)N)cc(Cl)c4F)[nH]c3nc2=O)cc1)NC(=N)N` [Compound 252], the MIC was below 16 µg/mL.
As for `C[C@H](N)CC[C@@H](O)c1cc(-c2cc3cn(-c4ccc([C@H](C)NCCCNC(=N)N)cc4)c(=O)nc3[nH]2)cc(C(F)(F)F)c1` [Compound 21], the figure is below 16 µg/mL; as for `C[C@H](N)CCCc1cc(SC(F)(F)F)cc(-c2cc3cn(-c4ccc([C@@H](NCCCNC(=N)N)c5ccc(O)cc5)cc4)c(=O)nc3[nH]2)c1` [Compound 25], below 16 µg/mL; as for `C[C@H](NCCCNC(=N)N)c1ccc(-n2cc3cc(-c4cc(CCC[C@H](C)NC(=N)N)cc(Cl)c4F)[nH]c3nc2=O)cc1` [Compound 309], below 16 µg/mL.
As for `CSC[C@@H](CCN[C@@H](C)c1ccc(-n2cc3cc(-c4cc(CCC[C@H](C)N)cc(OC(F)(F)F)c4F)[nH]c3nc2=O)cc1)NC(=N)N` [Compound 288], the figure is below 16 µg/mL; as for `C[C@H](N)CCCc1cc(Cl)c(F)c(-c2cc3cn(-c4ccc([C@H](C)N[C@@H](CCO)CCNC(=N)N)cc4)c(=O)nc3[nH]2)c1` [Compound 303], below 16 µg/mL; as for `C[C@H](N)CCCc1cc(Cl)c(F)c(-c2cc3cn(-c4ccc(CNCCC5(N)CN(C(=N)N)C5)cc4)c(=O)nc3[nH]2)c1` [Compound 190], below 16 µg/mL.
Next, `C[C@H](N)CCCc1cc(SC(F)(F)F)cc(-c2cc3cn(-c4ccc(CNCc5c[nH]nn5)cc4)c(=O)nc3[nH]2)c1` [Compound 121]: above 16 µg/mL; `C[C@H](N)CCCc1cc(Cl)c(F)c(-c2cc3cn(-c4ccc(CNCC[C@@H](N)CCO)cc4)c(=O)nc3[nH]2)c1` [Compound 184]: below 16 µg/mL.
For the molecule `N=C(N)NCCCNCc1cccc(-n2cc3cc(-c4ccc(C(NC5CN(C(=N)N)C5)C(F)(F)F)cc4)[nH]c3nc2=O)c1` (stereo not drawn) [Compound 89], the MIC was below 16 µg/mL.
As for `CC[C@H](N)COCc1cc(SC(F)(F)F)cc(-c2cc3cn(-c4ccc([C@H](C)NCCCNC(=N)N)cc4)c(=O)nc3[nH]2)c1` [Compound 64], the figure is below 16 µg/mL; as for `C[C@H](N)CCCc1cc(Cl)c(F)c(-c2cc3cn(-c4ccc([C@H](C)NCC[C@H](Cn5ccnn5)NC(=N)N)cc4)c(=O)nc3[nH]2)c1` [Compound 293], below 16 µg/mL; as for `C[C@H](N)CCCc1cc(OC(F)(F)F)c(F)c(-c2cc3cn(-c4ccc(CNCC[C@H](CN)NC(=N)N)cc4)c(=O)nc3[nH]2)c1` [Compound 311], below 16 µg/mL.
As for `C[C@H](N)CCCc1cc(OC(F)(F)F)c(F)c(-c2cc3cn(-c4ccc(C[C@H](N)CCCNC(=N)N)cc4)c(=O)nc3[nH]2)c1` [Compound 231], the figure is below 16 µg/mL; as for `C[C@H](NCCCNC(=N)N)c1ccc(-n2cc3cc(-c4cc(SC(F)(F)F)cc([C@H](O)CC[C@H](N)CO)c4)[nH]c3nc2=O)cc1` [Compound 111], below 16 µg/mL.
Regarding `C[C@H](N)CCCc1cc(SC(F)(F)F)cc(-c2cc3cn(-c4ccc([C@@H](CCc5ccncc5)NCCCNC(=N)N)cc4)c(=O)nc3[nH]2)c1` [Compound 86], the MIC was below 16 µg/mL.
As for `C[C@H](N)CCCc1cc(Cl)c(F)c(-c2cc3cn(-c4ccc([C@H](CCF)NCCCNC(=N)N)cc4)c(=O)nc3[nH]2)c1` [Compound 74], the figure is below 16 µg/mL; as for `C=C[C@H](CCN[C@@H](C)c1ccc(-n2cc3cc(-c4cc(CCC[C@H](C)N)cc(Cl)c4F)[nH]c3nc2=O)cc1)NC(=N)N` [Compound 236], below 16 µg/mL.
With `C[C@H](N)CCCc1cc(SC(F)(F)F)cc(-c2cc3cn(-c4ccc(CNCCC(=O)O)cc4)c(=O)nc3[nH]2)c1` [Compound 140], the minimal inhibitory concentration (MIC) is above 16 µg/mL.
As for `C[C@H](NCCCNC(=N)N)c1ccc(-n2cc3cc(-c4cc(SC(F)(F)F)cc([C@H](O)CC[C@@H](N)CCO)c4)[nH]c3nc2=O)cc1` [Compound 133], the figure is below 16 µg/mL; as for `C[C@H](N)CCCc1cc(Cl)c(F)c(-c2cc3cn(-c4ccc([C@H](CO)NCCCNC(=N)N)cc4)c(=O)nc3[nH]2)c1` [Compound 103], below 16 µg/mL.
As to `CNCCNCc1ccc(-n2cc3cc(-c4cc(CCC[C@H](C)N)cc(SC(F)(F)F)c4)[nH]c3nc2=O)cc1` [Compound 124], the minimal inhibitory concentration (MIC) is above 16 µg/mL.
With `C[C@H](N)CCCc1cc(Cl)c(F)c(-c2cc3cn(-c4ccc([C@@H](CCc5ccncc5)NCCCNC(=N)N)cc4)c(=O)nc3[nH]2)c1` [Compound 69], the minimal inhibitory concentration (MIC) is below 16 µg/mL.
As for `C[C@H](NCCCNC(=N)N)c1ccc(-n2cc3cc(-c4cc(CCC[C@@H](N)CN)cc(Cl)c4F)[nH]c3nc2=O)cc1` [Compound 319], the figure is below 16 µg/mL; as for `CC(N)CC[C@@H](O)c1cc(-c2cc3cn(-c4ccc([C@H](C)NCCCNC(=N)N)cc4)c(=O)nc3[nH]2)cc(C(F)(F)F)c1` (stereo partly drawn) [Compound 22], below 16 µg/mL.
Next, `C[C@H](N)CCCc1cc(SC(F)(F)F)cc(-c2cc3cn(-c4ccc([C@@H](CO)NCCCNC(=N)N)cc4)c(=O)nc3[nH]2)c1` [Compound 45]: below 16 µg/mL; `C[C@H](N)CCCc1cc(SC(F)(F)F)cc(-c2cc3cn(-c4ccc([C@H](N)CCCCNC(=N)N)cc4)c(=O)nc3[nH]2)c1` [Compound 93]: below 16 µg/mL.
As for `C[C@H](NCCCNC(=N)N)c1ccc(-n2cc3cc(-c4cc(CCC[C@@H]5COC(=O)N5)cc(Cl)c4F)[nH]c3nc2=O)cc1` [Compound 296], the figure is above 16 µg/mL.
`COCC[C@H](NCCCNC(=N)N)c1ccc(-n2cc3cc(-c4cc(CCC[C@H](C)N)cc(C(F)(F)F)c4)[nH]c3nc2=O)cc1` [Compound 28]: the MIC is below 16 µg/mL.
In the case of `CC(CCNCc1ccc(-n2cc3cc(-c4cc(CCC[C@H](C)N)cc(Cl)c4F)[nH]c3nc2=O)cc1)NC(=N)N` (stereo partly drawn) [Compound 186], the MIC is below 16 µg/mL.
As for `C=CC[C@H](N)CCNCc1ccc(-n2cc3cc(-c4cc(CCC[C@H](C)N)cc(Cl)c4F)[nH]c3nc2=O)cc1` [Compound 201], the figure is below 16 µg/mL; as for `C[C@H](N)CC[C@@H](O)c1cc(Cl)c(F)c(-c2cc3cn(-c4ccc([C@H](C)NCCCNC(=N)N)cc4)c(=O)nc3[nH]2)c1` [Compound 310], below 16 µg/mL; as for `C=CC[C@@H](NCCCNC(=N)N)c1ccc(-n2cc3cc(-c4cc(CCC[C@H](C)N)cc(Cl)c4F)[nH]c3nc2=O)cc1` [Compound 3], below 16 µg/mL.
As for `C[C@H](N)CCCc1cc(Cl)c(F)c(-c2cc3cn(-c4ccc(CN[C@H](C)CCN)cc4)c(=O)nc3[nH]2)c1` [Compound 210], the figure is below 16 µg/mL; as for `C[C@H](N)CCCc1cc(Cl)c(F)c(-c2cc3cn(-c4ccc([C@H](C)NCC[C@H](C)N)cc4)c(=O)nc3[nH]2)c1` [Compound 221], below 16 µg/mL; as for `C[C@H](N)CCCc1cc(Cl)c(F)c(-c2cc3cn(-c4ccc(CNCC[C@H](N)CO)cc4)c(=O)nc3[nH]2)c1` [Compound 192], below 16 µg/mL.
Next, `C[C@H](NCCCNC(=N)N)c1ccc(-n2cc3cc(-c4cc(SC(F)(F)F)cc([C@H](O)CC[C@H](N)CCO)c4)[nH]c3nc2=O)cc1` [Compound 132]: below 16 µg/mL; `C[C@H](N)CCCc1cc(OC(F)(F)F)c(F)c(-c2cc3cn(-c4ccc([C@H](C)NCC[C@H](C)NC(=N)N)cc4)c(=O)nc3[nH]2)c1` [Compound 224]: below 16 µg/mL.
Turning to `CC(=O)OC[C@H](N)CCCc1cc(Cl)c(F)c(-c2cc3cn(-c4ccc([C@H](C)NCCCNC(=N)N)cc4)c(=O)nc3[nH]2)c1` [Compound 295], the MIC was below 16 µg/mL.
Next, `C[C@H](N)CCCc1cc(-c2cc3cn(-c4ccc([C@H](C)N[C@@H](C)CCNC(=N)N)cc4)c(=O)nc3[nH]2)cc(C(F)(F)F)c1` [Compound 220]: below 16 µg/mL.
As for `CC(=O)N[C@@H](C)CCCc1cc(Cl)c(F)c(-c2cc3cn(-c4ccc([C@H](C)NCCCNC(=N)N)cc4)c(=O)nc3[nH]2)c1` [Compound 76], the figure is above 16 µg/mL.
